Experimental data taken from paper PMC7044277 (Nature Communications, 2020).
Where “and” joins values, the source holds several entries; their conditions need not be identical. Equal entries are not always repeated.

What was measured:
Format in all cases: cell-based
5HT4 = target: T1, 5HT4 (Homo sapiens, UniProt Q13639); assay: β-arrestin2 recruitment (Tango); settings: Fig_S10n; for β-arrestin2 recruitment response in presence of serotonin (replicate values): +10μM serotonin; for β-arrestin2 recruitment response (dose-response source data, replicate values): drug alone
T1 construct: expressed in transfected cells; host or cells: HTLA cells expressing TEV-fused β-arrestin2
T1 sequence (Q13639 whole entry, the tested form may be a part): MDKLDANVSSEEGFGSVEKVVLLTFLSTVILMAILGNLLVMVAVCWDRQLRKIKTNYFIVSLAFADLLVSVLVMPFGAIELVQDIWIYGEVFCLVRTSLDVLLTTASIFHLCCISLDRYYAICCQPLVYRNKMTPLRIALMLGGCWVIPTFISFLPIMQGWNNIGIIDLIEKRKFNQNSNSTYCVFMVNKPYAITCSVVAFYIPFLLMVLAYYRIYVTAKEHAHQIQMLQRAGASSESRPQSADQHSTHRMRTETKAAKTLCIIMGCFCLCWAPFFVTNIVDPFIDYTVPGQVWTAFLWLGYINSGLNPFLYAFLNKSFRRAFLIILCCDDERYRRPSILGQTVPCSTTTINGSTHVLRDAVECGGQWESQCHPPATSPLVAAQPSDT

DRD2 (D2 long receptor) = DRD2 (D2 long receptor) (Homo sapiens, UniProt P14416); assay: Gαi/o-mediated cAMP inhibition (GloSensor split-luciferase cAMP reporter), HEK293T; settings: DRD2;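 also: compounds applied 15 min at room temperature, then luciferin plus 400 nM isoproterenol to raise cAMP through endogenous β2-adrenergic receptors, luminescence read 15 min later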
Sequence of DRD2 (D2 long receptor) (P14416 whole entry): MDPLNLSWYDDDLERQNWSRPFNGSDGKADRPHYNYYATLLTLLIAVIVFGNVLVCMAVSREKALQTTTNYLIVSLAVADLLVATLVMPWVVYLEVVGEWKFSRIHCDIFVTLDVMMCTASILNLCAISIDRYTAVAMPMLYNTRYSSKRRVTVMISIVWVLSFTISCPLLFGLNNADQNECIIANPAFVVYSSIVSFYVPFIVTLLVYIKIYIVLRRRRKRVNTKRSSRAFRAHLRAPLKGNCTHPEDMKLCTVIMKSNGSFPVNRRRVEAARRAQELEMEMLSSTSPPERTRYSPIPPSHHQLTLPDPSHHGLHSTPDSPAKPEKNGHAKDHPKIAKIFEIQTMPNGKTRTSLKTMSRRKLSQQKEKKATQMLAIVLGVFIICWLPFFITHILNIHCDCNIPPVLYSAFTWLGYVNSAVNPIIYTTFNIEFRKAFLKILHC

DRD3 = DRD3 (Homo sapiens, UniProt P35462); assay: β-arrestin2 recruitment (Tango)
Sequence of DRD3 (P35462 whole entry): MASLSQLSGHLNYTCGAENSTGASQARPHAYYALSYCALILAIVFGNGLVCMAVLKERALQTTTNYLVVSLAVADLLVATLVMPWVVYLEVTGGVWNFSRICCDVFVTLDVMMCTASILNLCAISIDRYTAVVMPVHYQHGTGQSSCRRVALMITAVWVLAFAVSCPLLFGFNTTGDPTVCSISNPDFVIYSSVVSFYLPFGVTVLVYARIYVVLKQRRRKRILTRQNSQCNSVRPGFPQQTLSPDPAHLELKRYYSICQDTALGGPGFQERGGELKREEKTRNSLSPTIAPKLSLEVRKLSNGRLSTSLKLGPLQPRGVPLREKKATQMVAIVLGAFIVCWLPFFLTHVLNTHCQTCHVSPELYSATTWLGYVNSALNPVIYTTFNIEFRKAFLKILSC

5HT1F = target: T2, 5HT1F (Homo sapiens, UniProt P30939); assay: β-arrestin2 recruitment (Tango); settings: Fig_S10j
T2 construct: expressed in transfected cells; host or cells: HTLA cells expressing TEV-fused β-arrestin2
T2 sequence (P30939 1-366): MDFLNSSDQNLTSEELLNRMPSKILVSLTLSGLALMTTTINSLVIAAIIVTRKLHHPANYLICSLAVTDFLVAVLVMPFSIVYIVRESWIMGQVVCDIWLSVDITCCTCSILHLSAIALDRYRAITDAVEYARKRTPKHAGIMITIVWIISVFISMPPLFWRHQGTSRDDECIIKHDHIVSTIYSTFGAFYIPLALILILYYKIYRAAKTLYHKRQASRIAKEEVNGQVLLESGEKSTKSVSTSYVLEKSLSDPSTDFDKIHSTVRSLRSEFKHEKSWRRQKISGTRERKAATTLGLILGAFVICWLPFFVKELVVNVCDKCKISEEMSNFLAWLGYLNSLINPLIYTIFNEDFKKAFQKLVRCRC

## CCOc1cccc2cc([C@@H](C)NCC3(O)CCCCC3)oc12 [O4RE6]
5HT4; Log[Drug] -6.52
  β-arrestin2 recruitment response in presence of serotonin (replicate values): 61.872
  β-arrestin2 recruitment response (dose-response source data, replicate values): 1.914
5HT4; Log[Drug] -7
  β-arrestin2 recruitment response in presence of serotonin (replicate values): 64.7524 and 57.0569 and 68.7411 and 71.876 and 66.1156 and 64.7823 and 62.9846 and 72.5854 and 58.9141
  β-arrestin2 recruitment response (dose-response source data, replicate values): 0.4762 and 0.5315 and 0.3036 and 1.47 and 0.6917 and 0.6083 and -0.2126 and 0.07923 and 0.2126
5HT4; Log[Drug] -7.52
  β-arrestin2 recruitment response in presence of serotonin (replicate values): 67.3937 and 54.3976 and 65.3292 and 58.7354 and 62.4375 and 61.2125 and 60.3264 and 67.443 and 67.076
  β-arrestin2 recruitment response (dose-response source data, replicate values): 0.4824 and 0.6557 and 1.0009 and 1.276 and 0.8198 and 0.6438 and -0.1108 and 0.08408 and -0.1463
5HT4; Log[Drug] -8
  β-arrestin2 recruitment response in presence of serotonin (replicate values): 65.8409 and 63.3895 and 63.0679 and 59.9271 and 55.4104 and 64.9198 and 50.9713 and 49.466 and 77.9372
  β-arrestin2 recruitment response (dose-response source data, replicate values): 0.2279 and 0.2043 and 0.8233 and 0.8469 and 0.6458 and 2.318 and -0.27 and -0.308 and 0.6993
5HT4; Log[Drug] -8.52
  β-arrestin2 recruitment response in presence of serotonin (replicate values): 63.4237 and 62.7587 and 63.6242 and 63.1469 and 61.3792 and 61.5198 and 57.3708 and 61.2149 and 65.253
  β-arrestin2 recruitment response (dose-response source data, replicate values): 1.195 and 1.746 and 0.9636 and 0.6083 and 1.193 and 1.147 and -0.3056 and 0.2118 and 0.0477
5HT4; Log[Drug] -9
  β-arrestin2 recruitment response in presence of serotonin (replicate values): 73.1291 and 64.8356 and 60.6203 and 52.4417 and 65.9365 and 64.5823 and 63.8148 and 65.7381 and 55.6869
  β-arrestin2 recruitment response (dose-response source data, replicate values): 0.9748 and 0.4464 and 1.275 and 1.439 and 1.359 and 0.525 and -0.3751 and 0.5028 and -0.1156
5HT4; Log[Drug] -9.52
  β-arrestin2 recruitment response in presence of serotonin (replicate values): 69.2832 and 67.6123 and 68.9932 and 55.1 and 63.4344 and 64.601 and 58.9998 and 66.4964 and 65.7267
  β-arrestin2 recruitment response (dose-response source data, replicate values): 0.9748 and 1.052 and 0.4042 and 0.901 and 0.7365 and 0.6104 and 1.02 and 0.3484 and -0.01698
5HT4; Log[Drug] -10
  β-arrestin2 recruitment response in presence of serotonin (replicate values): 76.2485 and 62.2675 and 64.5873 and 59.8927 and 56.6667 and 68.1219 and 68.0316 and 61.4033 and 67.9677
  β-arrestin2 recruitment response (dose-response source data, replicate values): 0.629 and 0.5812 and 0.457 and 0.6927 and 0.4885 and 0.9823 and -0.2005 and 5.06 and 0.3864
5HT4; Log[Drug] -10.52
  β-arrestin2 recruitment response in presence of serotonin (replicate values): 75.7189 and 64.7332 and 70.6094 and 73.5573 and 66.3448 and 67.3771 and 66.768 and 70.3542 and 67.3953
  β-arrestin2 recruitment response (dose-response source data, replicate values): 0.4328 and 0.1577 and 0.7768 and 0.8562 and 0.5281 and 1.361 and 0.08327 and -0.03395 and 0.2724
5HT4; Log[Drug] -11
  β-arrestin2 recruitment response in presence of serotonin (replicate values): 74.7968 and 75.6357 and 68.127 and 60.4448 and 57.1219 and 66.626 and 65.7178 and 87.5009 and 57.2593
  β-arrestin2 recruitment response (dose-response source data, replicate values): 0.5557 and 0.7004 and 0.8308 and 2.567 and 0.5635 and 1.27 and -0.1415 and -0.4034 and 0.4066
5HT4; Log[Drug] -11.52
  β-arrestin2 recruitment response in presence of serotonin (replicate values): 97.2705 and 89.1683 and 77.1935 and 74.2448 and 65.2792 and 55.4573 and 62.6402 and 78.6163 and 88.7629
  β-arrestin2 recruitment response (dose-response source data, replicate values): 0.4266 and 1.996 and 0.1267 and 1.773 and 0.5229 and 1.651 and 0.05093 and 0.01859 and 0.1746
5HT4; Log[Drug] -12
  β-arrestin2 recruitment response in presence of serotonin (replicate values): 118.392 and 99.4834 and 97.7219 and 77.2104 and 74.4021 and 77.9375 and 116.996 and 81.757 and 92.5544
  β-arrestin2 recruitment response (dose-response source data, replicate values): 0.9382 and 1.326 and 1.032 (2×) and 0.8271 and 0.8656 and -0.4301 and -0.07599 and 0.5061
DRD2 (D2 long receptor); agonist, Gαi/o-mediated cAMP inhibition, read-out: EC50 ± SEM
  EC50: 0.45 ± 0.05 nM
DRD2 (D2 long receptor); cAMP inhibition
  G protein agonist activity: full agonist
DRD2 (D2 long receptor); HEK-293T, read-out: Emax relative to quinpirole response, cAMP inhibition
  Emax: 94.5%
DRD3; DRD3, Tango
  β-arrestin2 recruitment agonist activity: partial agonist
DRD3; DRD3, Tango, read-out: EC50 ± SEM
  EC50: 808 ± 22 nM
DRD3; Log[Drug] -5
  β-arrestin2 recruitment response at DRD3 (source data, replicate values): 4.576 and 3.7 and 3.62 and 3.736 and 5.471 and 3.308 and 2.328
DRD3; Log[Drug] -5.52
  β-arrestin2 recruitment response at DRD3 (source data, replicate values): 3.058 and 2.935 and 3.394 and 3.834 and 3.658 and 1.004 and 1.077
DRD3; Log[Drug] -6
  β-arrestin2 recruitment response at DRD3 (source data, replicate values): 2.938 and 3.023 and 2.856 and 3.025 and 3.1562 and 0.3638 and 0.509
DRD3; Log[Drug] -6.52
  β-arrestin2 recruitment response at DRD3 (source data, replicate values): 3.396 and 2.937 and 2.899 and 3.295 and 4.17 and 0.7903 and 0.1505
DRD3; Log[Drug] -7
  β-arrestin2 recruitment response at DRD3 (source data, replicate values): 2.933 and 3.147 and 2.775 and 2.952 and 4.646 and 0.5125 and 2.883
DRD3; Log[Drug] -7.52
  β-arrestin2 recruitment response at DRD3 (source data, replicate values): 3.0214 and 3.313 and 2.803 and 3.9395 and 2.8785 and -0.1416 and 0.9462
DRD3; Log[Drug] -8
  β-arrestin2 recruitment response at DRD3 (source data, replicate values): 3.394 and 3.834 and 3.658 and 3.117 and 3.387 and 1.887 and -0.07348
DRD3; Log[Drug] -8.52
  β-arrestin2 recruitment response at DRD3 (source data, replicate values): 2.856 and 3.025 and 3.1562 and 3.299 and 3.446 and 1.2903 and 3.595
DRD3; Log[Drug] -9
  β-arrestin2 recruitment response at DRD3 (source data, replicate values): 2.899 and 3.295 and 4.17 and 2.956 and 3.124 and 0.2993 and 1.159
DRD3; Log[Drug] -9.52
  β-arrestin2 recruitment response at DRD3 (source data, replicate values): 2.775 and 2.952 and 4.646 and 3.025 and 2.94 and 0.3512 and -0.2025
DRD3; Log[Drug] -10
  β-arrestin2 recruitment response at DRD3 (source data, replicate values): 2.803 and 3.9395 and 2.8785 and 2.928 and 3.403 and 1.077 and 2.238
DRD3; Log[Drug] -10.52
  β-arrestin2 recruitment response at DRD3 (source data, replicate values): 5.884 and 3.155 and 4.6156 and 3.056 and 2.943 and 1.1541 and 0.8548
DRD3; Log[Drug] -11
  β-arrestin2 recruitment response at DRD3 (source data, replicate values): 3.18 and 2.961 and 3.126 and 2.927 and 2.942 and 0.5878 and 2.511
DRD3; Log[Drug] -11.52
  β-arrestin2 recruitment response at DRD3 (source data, replicate values): 2.6928 and 2.862 and 2.962 and 3.132 and 3.725 and -0.276 and 0.7993
DRD3; read-out: Emax relative to quinpirole response, DRD3, Tango
  Emax: 21.4%
5HT1F; Log[Drug] -8
  β-arrestin2 recruitment response, agonist mode (single replicate values): -0.9904 and 0.5932 and 0.4069 and -0.749 and -2.5023 and -1.954 and -1.184 and -1.248 and -0.2773
5HT1F; Log[Drug] -8.52
  β-arrestin2 recruitment response, agonist mode (single replicate values): 0.3187 and 0.8997 and 1.294 and 0.7694 and -1.144 and -0.1941 and 0.6567 and 0.7348 and -0.5451
5HT1F; Log[Drug] -9
  β-arrestin2 recruitment response, agonist mode (single replicate values): 0.2574 and -0.174 and 0.01716 and -1.454 and -1.951 and -2.373 and 1.634 and -1.575 and -0.4734
5HT1F; Log[Drug] -9.52
  β-arrestin2 recruitment response, agonist mode (single replicate values): -0.956 and -0.4682 and 0.01716 and 8.249 and -1.726 and -1.835 and -1.503 and -0.6631 and 0.5435
5HT1F; Log[Drug] -10
  β-arrestin2 recruitment response, agonist mode (single replicate values): 2.1842 and 2.2749 and -0.3922 and 0.1736 and 1.58 and -1.964 and -1.621 and -1.4329 and 0.0271
